Test results: PMC8760490, “Discovery of novel furanylbenzamide inhibitors that target oncogenic tyrosine phosphatase SHP2 in leukemia cells” (The Journal of Biological Chemistry, 2021)

What was measured:
[1] = system: patient-derived AML cells; test: Viability of patient-derived AML cells; format: cell-based, human; conditions: 10 μM; 2, 4 or 6 days in culture
Excerpt: Because SHP2 activity is critical for ERK activation, we used phospho-ERK1/2 (p-ERK1/2) as a more direct readout of SHP2 inhibitor efficacy. […] This p-ERK rebound in MOLM-13 cells treated with RMC-4550 is reminiscent of previously reported data from human hepatoma Hep3B cells treated with SHP099 ([34]). We also tested the effects of SBI-4668 or RMC-4550 on two patient-derived AML samples (Fig. 4F).
Patient-derived AML cells were obtained from Carol Burian and Dr James Mason (Scripps MD Anderson Center) under approved Institutional Review Board protocol 13-6180. […] Final peripheral blood mononuclear cells were resuspended in Bambanker serum-free freezing medium (Wako Pure Chemical Industries, Ltd) and stored frozen before cell viability was assessed as described later.
Viability of AML and esophageal carcinoma cells was assessed using the ATP-depletion assay CellTiter-Glo (Promega). Cells were harvested at 1 × 10^6/ml to 2 × 10^6 cells/ml with cell numbers determined by trypan blue using the Countess Cell counter (Thermo Scientific) and resuspended in culture media. […] Luminescence was read on a Tecan Spark Multimode Microplate Reader, and data were analyzed using GraphPad Prism software.

MDA-MB-468 TNBC cells = test: TNBC cell viability (CellTiter-Glo), MDA-MB-468; format: cell-based; conditions: Homo sapiens, MDA-MB-468; 72 h per text; 5 days per legend and method
Experimental: (§1) Inhibition of SHP2 has been reported to inhibit the growth of cancer cells including Kasumi-1 acute myeloid leukemia (AML) and KYSE-520 esophageal cancer cells ([30]). […] Thus, we treated two TNBC cell lines, BT-549 and MDA-MB-468, with SBI-4668 or the SHP2 allosteric inhibitor SHP099 at various concentrations and determined cell viability after 72 h, compared with the vehicle control (Fig. 4C). […] Next, we performed an 11-day colony formation assay with TNBC cells treated with SBI-4668 or SHP099 at 5, 10, or 20 μM (Fig. 4D).
(§2) Triple-negative breast cancer cell viability was assessed using the ATP-depletion assay CellTiter-Glo. Briefly, 2500 cells in 25 μl media (RPMI + 10% FBS + 1× penicillin–streptomycin [Omega Scientific]) were seeded per well of a 384-well tissue culture–treated plate (Greiner). About 25 nl of 1000× test compound were added using a Labcyte Echo acoustic dispenser, and the cells were incubated for 5 days before addition of 10 μl of CellTiter-Glo reagent as described by the manufacturer. Luminescence was detected on a BioTek Synergy 2 microplate reader, and the values normalized to those of vehicle (DMSO)-treated controls before being plotted using GraphPad Prism.

BT-549 TNBC cells [2] = test: TNBC cell viability (CellTiter-Glo), BT-549; format: cell-based; conditions: Homo sapiens, BT-549; 72 h per text; 5 days per legend and method
Experimental: as §1, §2

BT-549 TNBC cells [3] = test: 11-day colony formation assay, BT-549; format: cell-based; conditions: 5, 10 or 20 μM, 11 days
Experimental: as §1
MDA-MB-468 and […] triple-negative breast cancer cells were maintained in Dulbecco's modified Eagle's medium + 10% FBS supplemented with 1× penicillin–streptomycin/L-glutamine (Omega Scientific). About 1500 cells (in 300 μl) were seeded per well of a standard 24-well tissue culture plate (Falcon) and allowed to adhere for 24 h, before the addition of compound(s) as described. After a further 96 h, media were replaced with fresh media containing the same test compounds and concentrations. After 11 days, media were removed, and cells stained with 0.5% crystal violet (in 20% methanol; Sigma) for 20 min with agitation at 80 rpm. Stain was removed, and plates with stained cells were washed by being submerged in excess deionized water and allowed to air dry overnight before imaging.

With `O=C(Nc1ccccc1)c1cc(-c2ccc(/C=C3\Sc4ccccc4C3=O)o2)ccc1O` [SBI-4668, (Z)-2-Hydroxy-5-(5-((3-oxobenzo[b]thiophen-2(3H)-ylidene)methyl)furan-2-yl)-N-phenylbenzamide] the “growth of two patient-derived AML samples” value [1] was “inhibited the growth of both AML patient samples”, the IC50 (MDA-MB-468 TNBC cells) was 2.5 µM and the IC50 (BT-549 TNBC cells [2]) was 5.4 µM. The “colony formation, BT-549” value (BT-549 TNBC cells [3]) was “undetectable”.
